Assay results published in patent publication US8895579B2, “Heterotricyclic AMPA receptor antagonists for treatment of epilepsy, pain, and other neurological disorders and diseases” (Northwestern University, priority 2010, dated 2014).
“Also recorded” adds a separate entry of the source.

Tests used:
[1] = tested on: AMPA receptor-mediated EPSCs in primary hippocampal neurons; assay: AMPA receptor EPSC charge transfer during spontaneous synaptic bursts, whole-cell voltage clamp, cultured hippocampal neurons; assay type: cell-based; details: 30 μM
Description: (§1) Experiments involving primary hippocampal neurons were carried out as described previously (Vivithanaporn et al., 2007). Dissociated neurons were cultured from E18 prenatal hippocampi and were used for analysis from between 17 and 28 days in vitro. The extracellular solution was the same as used for recombinant receptor analysis, while the internal solution for voltage clamp recordings contained (in mM) 95 CsF, 25 CsCl, 10 Cs-HEPES, 10 EGTA, 2 NaCl, 2 Mg-ATP, 10 QX-314, 5 TEA. and 5 4-AP (pH 7.3) and the internal solution for current clamp recordings contained (in mM) 120 KMeSO4, 5 KCl, 5 NaCl, 1 MgCl2, 11 Na-HEPES, 10 phosphocreatine, 4 Na-ATP, and 0.3 Na-GTP (pH 7.0). Borosilicate patch electrodes were pulled and fire polished to 3-5 MΩ resistance. Both whole cell current clamp and voltage clamp recordings were performed using an Axopatch 200B amplifier (MDS, Sunnyvale, Calif.) and filtered at 20 kHz. Gigaohm seals were established in voltage clamp mode and, after membrane rupture, the recordings were carried out either in voltage clamp (clamped at Vm=−70 mV) with a […] series resistance, which was compensated to ˜60%, or in current clamp mode ([…]) with the bridge balance was corrected and pipette resistance neutralized. In vitro status epilepticus (SE) was induced as described previously (Deshpande et al., 2007; Pal et al., 1999) and action potentials were recorded in current clamp mode. Briefly for in vitro SE, magnesium-containing external solution was exchanged for external solution without magnesium and supplemented with 2 μM glycine. This solution exchange produced a period of rapid depolarization and increased AP firing, followed by a period of channel inactivation and reduced AP firing. After channel inactivation, neurons characteristically would hyperpolarize to hold at a membrane voltage (Vm) which was depolarized relative to control Vm, with an increase in AP firing frequency. […] External solutions were bath-applied at a flow rate of 1.5-2 ml/minute. After recording a basal control period, IKM compounds were applied for five minutes (10 minutes for in vitro SE experiments) and changes in excitatory post-synaptic current (EPSC) charge transfer or action potential (AP) frequency were analyzed during the last two minutes of IKM application.
We first measured the actions of the IKM compounds on the charge transfer during spontaneously occurring, polysynaptic bursts of AMPA receptor excitatory post-synaptic currents (EPSCs) in cultured hippocampal neurons (recorded in the presence of bicuculline methiodide and picrotoxin to inhibit GABAA receptors and D-APV to inhibit NMDA receptors). […] IKM-159 had the greatest inhibitory effect at a fixed concentration of 30 μM, producing a reduction in charge transfer of 65±5% (n=6, p<0.01). […] Despite the polar chemical nature of the compounds, recoveries to basal EPSC charge transfers were minimal.

[2] = tested on: primary hippocampal neurons; assay: In vitro model of status epilepticus (Mg2+ removal, 2 μM glycine), action potential firing in hippocampal neurons; assay type: cell-based
Description: as §1
Several AMPA receptor selective antagonists reduce neuronal hyperactivity in both acute brain slice preparations and in in vitro models of epilepsy (Grasso et al., 1999; Szabados et al., 2001). […] We therefore tested the efficacy of IKM-159 in reducing the hyperactive neuronal phenotype in dissociated hippocampal neurons using an in vitro model of status epilepticus (SE) (Deshpande et al., 2007; Pal et al., 1999). […]

[3] = molecular target: T1, GluK2a (Rattus norvegicus, UniProt P42260); assay: [3H]-KA radioligand binding, membranes of HEK293-T/17 cells expressing GluK2a; details: 10 nM [3H]-KA, 1 h at 4° C., read-out: [3H]KA bound as percent of total (specific) binding in absence of competing ligand
T1 construct: myc; expressed in transfected cells; host or cells: HEK293-T/17 (CRL-11268)
T1 sequence (P42260 32-908): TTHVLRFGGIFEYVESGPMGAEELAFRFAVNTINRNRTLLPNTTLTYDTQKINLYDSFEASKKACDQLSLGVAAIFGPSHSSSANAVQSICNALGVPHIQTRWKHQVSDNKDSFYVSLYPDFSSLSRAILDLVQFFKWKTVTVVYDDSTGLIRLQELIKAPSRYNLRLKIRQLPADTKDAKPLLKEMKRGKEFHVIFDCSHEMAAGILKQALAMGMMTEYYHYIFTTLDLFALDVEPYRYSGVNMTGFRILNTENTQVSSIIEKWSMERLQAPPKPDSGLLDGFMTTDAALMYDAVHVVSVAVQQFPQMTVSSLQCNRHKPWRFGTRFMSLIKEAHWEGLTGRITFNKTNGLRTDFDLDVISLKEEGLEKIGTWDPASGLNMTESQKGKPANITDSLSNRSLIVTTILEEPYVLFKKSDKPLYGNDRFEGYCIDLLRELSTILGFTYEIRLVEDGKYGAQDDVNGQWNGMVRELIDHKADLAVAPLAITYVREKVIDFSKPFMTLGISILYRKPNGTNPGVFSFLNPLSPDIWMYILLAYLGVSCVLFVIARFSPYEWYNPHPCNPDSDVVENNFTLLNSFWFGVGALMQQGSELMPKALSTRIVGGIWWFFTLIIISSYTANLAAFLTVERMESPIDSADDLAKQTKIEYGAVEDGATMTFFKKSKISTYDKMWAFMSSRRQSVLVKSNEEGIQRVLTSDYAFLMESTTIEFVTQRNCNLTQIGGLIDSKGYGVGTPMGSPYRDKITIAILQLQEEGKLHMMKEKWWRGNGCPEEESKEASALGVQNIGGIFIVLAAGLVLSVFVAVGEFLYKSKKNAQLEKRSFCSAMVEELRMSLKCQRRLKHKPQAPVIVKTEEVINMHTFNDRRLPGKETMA
Description: Radioligand binding. HEK293-T/17 cells were transfected with 5 μg of iGluR cDNA in 100 mm^2 culture dishes. Two days post transfection, the plates were washed twice with ice-cold Dulbecco's phosphate-buffered saline (DPBS) and then incubated with 50 mM Tris (pH 7.4) and 1 mM EDTA for three minutes on ice. Cells were collected and centrifuged for five minutes at 800 g at room temperature. The cell pellet was homogenized in 50 mM Tris (pH 7.4) containing 320 mM sucrose (homogenization buffer, HB) on ice using a glass dounce homogenizer and centrifuged at 4° C. for 10 minutes at 800 g. The supernatant, containing the membrane fragments, was saved and the remaining pellet containing nuclei and unbroken cells was resuspended in HB. This homogenization process was repeated two more times and after collection of the final resulting supernatant, the remaining pellet was discarded. The collected supernatants were centrifuged at 4° C. for 20 minutes at 20000 g and the resulting supernatant was discarded leaving a membrane-containing pellet. […] Non-specific binding was determined as the amount of radioligand bound in the presence of a saturating concentration of glutamate (1 mM). Total binding was determined as the amount of radioligand bound in the absence of any competing ligands minus the non-specific binding. […]

[4] = tested on: mice; details: Ikoma et al., 2008; Oikawa et al., 2009 and unpublished observations; cited from earlier work

O=C(O)C[C@@]12O[C@H]3C=CCN[C@H]3C1CN[C@H]2C(=O)O (stereo partly shown) [IKM-159]
reduction from control charge transfer [1]: 65±5%
charge transfer during bursts of AMPA receptor-mediated synaptic events as a percent of the charge transfer during the control period ([1]; voltage clamped at −70 mV): 35±5%
AP firing frequency in SE condition with compound ([2]; 3 μM, SE condition 5.7±1.2 Hz, n.s.): 4.3±1.7 Hz
AP firing frequency upon wash out of compound ([2]; 20 μM, 10 minutes after removal): 1.0±0.3 Hz
AP firing frequency in SE condition with compound ([2]; 20 μM, SE condition 2.3±0.4 Hz): 0.9±0.3 Hz
activity at 100 µM [3]: 98 ± 4%
behavioral phenotype in mice [4]: hypoactive phenotypes similar to cataleptic states; also recorded: marked hypoactivity and immobility
